Laboratory results: PubChem BioAssay AID2060504 (Molecular Pharmacology Branch, DTP, NCI, 2025)

System: 636577-100-R-J1-PDC complex spheroid viability
Assay: Anticancer human tumor 636577-100-R-J1-PDC patient-derived endometrial adenocarcinoma cell line growth inhibition [GQUAD]
Details: for IC50: curve of first compound; for viability, T/C: stronger effect = lower value
Summary of the method: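 Tumor cells were grown as complex spheroids with HUVEC endothelial cells and mesenchymal stem cells as stroma. G-quadruplex stabilizers were combined with targeted agents over half-log dilutions from near the clinical Cmax, or from 10 microM.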

[1] = second compound 0.0316 µM, first compound 0.0316 µM
[2] = second compound 0.0316 µM, first compound 0.1 µM
[3] = second compound 0.0316 µM, first compound 0.316 µM
[4] = second compound 0.0316 µM, first compound 1 µM
[5] = second compound 0.0316 µM, first compound 3.16 µM
[6] = second compound 0.0316 µM, first compound 10 µM
[7] = second compound 0.1 µM, first compound 0.0316 µM
[8] = second compound 0.1 µM, first compound 0.1 µM
[9] = second compound 0.1 µM, first compound 0.316 µM
[10] = second compound 0.1 µM, first compound 1 µM
[11] = second compound 0.1 µM, first compound 3.16 µM
[12] = second compound 0.1 µM, first compound 10 µM
[13] = second compound 0.316 µM, first compound 0.0316 µM
[14] = second compound 0.316 µM, first compound 0.1 µM
[15] = second compound 0.316 µM, first compound 0.316 µM
[16] = second compound 0.316 µM, first compound 1 µM
[17] = second compound 0.316 µM, first compound 3.16 µM
[18] = second compound 0.316 µM, first compound 10 µM
[19] = second compound 1 µM, first compound 0.0316 µM
[20] = second compound 1 µM, first compound 0.1 µM
[21] = second compound 1 µM, first compound 0.316 µM
[22] = second compound 1 µM, first compound 1 µM
[23] = second compound 1 µM, first compound 3.16 µM
[24] = second compound 1 µM, first compound 10 µM
[25] = second compound 3.16 µM, first compound 0.0316 µM
[26] = second compound 3.16 µM, first compound 0.1 µM
[27] = second compound 3.16 µM, first compound 0.316 µM
[28] = second compound 3.16 µM, first compound 1 µM
[29] = second compound 3.16 µM, first compound 3.16 µM
[30] = second compound 3.16 µM, first compound 10 µM
[31] = second compound 10 µM, first compound 0.0316 µM
[32] = second compound 10 µM, first compound 0.1 µM
[33] = second compound 10 µM, first compound 0.316 µM
[34] = second compound 10 µM, first compound 1 µM
[35] = second compound 10 µM, first compound 3.16 µM
[36] = second compound 10 µM, first compound 10 µM
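Further: viability read after seven days of drug exposure.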
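Wherever viability, T/C is given: luminescence signal used as a proxy for viable cells; 100% = DMSO vehicle control wells.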

CC(C)(O)C1CCC(Nc2ccc3ncc(-c4cccc(C(F)(F)F)c4)n3n2)CC1 (stereo not given) + Cc1[nH]c2ccc(F)cc2c1-c1nc2c3cccnc3c3ncccc3c2[nH]1
IC50 (second compound 0.0316 µM): 1090 nM
IC50 (second compound 0.1 µM): 981 nM
IC50 (second compound 0.316 µM): 1770 nM
IC50 (second compound 1 µM): 1880 nM
IC50 (second compound 3.16 µM): < 31.6 nM
IC50 (second compound 10 µM): < 31.6 nM
viability, T/C [1]: 92.8%
viability, T/C [2]: 75.9%
viability, T/C [3]: 111%
viability, T/C [4]: 51.3%
viability, T/C [5]: 35.5%
viability, T/C [6]: 32.2%
viability, T/C [7]: 90.7%
viability, T/C [8]: 79.1%
viability, T/C [9]: 84.4%
viability, T/C [10]: 49%
viability, T/C [11]: 33.1%
viability, T/C [12]: 26.2%
viability, T/C [13]: 60.9%
viability, T/C [14]: 54.6%
viability, T/C [15]: 82.9%
viability, T/C [16]: 62.5%
viability, T/C [17]: 34.6%
viability, T/C [18]: 39.9%
viability, T/C [19]: 69%
viability, T/C [20]: 78%
viability, T/C [21]: 69.5%
viability, T/C [22]: 69.8%
viability, T/C [23]: 33.7%
viability, T/C [24]: 23.5%
viability, T/C [25]: 20.1%
viability, T/C [26]: 28.1%
viability, T/C [27]: 31.1%
viability, T/C [28]: 26.1%
viability, T/C [29]: 16.2%
viability, T/C [30]: 13.1%
viability, T/C [31]: 31.6%
viability, T/C [32]: 34.1%
viability, T/C [33]: 39%
viability, T/C [34]: 37.8%
viability, T/C [35]: 17.1%
viability, T/C [36]: 15.1%

C=CCn1c(=O)c2cnc(Nc3ccc(N4CCN(C)CC4)cc3)nc2n1-c1cccc(C(C)(C)O)n1 + Cc1[nH]c2ccc(F)cc2c1-c1nc2c3cccnc3c3ncccc3c2[nH]1
IC50 (second compound 0.0316 µM): 825 nM
IC50 (second compound 0.1 µM): 746 nM
IC50 (second compound 0.316 µM): 580 nM
IC50 (second compound 1 µM): 202 nM
IC50 (second compound 3.16 µM): < 31.6 nM
IC50 (second compound 10 µM): < 31.6 nM
viability, T/C [1]: 113%
viability, T/C [2]: 83.9%
viability, T/C [3]: 94%
viability, T/C [4]: 41%
viability, T/C [5]: 16.9%
viability, T/C [6]: 12.4%
viability, T/C [7]: 103%
viability, T/C [8]: 78%
viability, T/C [9]: 78.4%
viability, T/C [10]: 40.6%
viability, T/C [11]: 19.6%
viability, T/C [12]: 12.5%
viability, T/C [13]: 83%
viability, T/C [14]: 78.5%
viability, T/C [15]: 65%
viability, T/C [16]: 36.9%
viability, T/C [17]: 17.4%
viability, T/C [18]: 14%
viability, T/C [19]: 83.9%
viability, T/C [20]: 45.3%
viability, T/C [21]: 58.1%
viability, T/C [22]: 29.8%
viability, T/C [23]: 16.1%
viability, T/C [24]: 13.6%
viability, T/C [25]: 25.6%
viability, T/C [26]: 21.4%
viability, T/C [27]: 23.6%
viability, T/C [28]: 19.1%
viability, T/C [29]: 17.5%
viability, T/C [30]: 16.6%
viability, T/C [31]: 35%
viability, T/C [32]: 28.6%
viability, T/C [33]: 29.3%
viability, T/C [34]: 20.1%
viability, T/C [35]: 20.9%
viability, T/C [36]: 14.5%

CC(C)n1c(=O)n(C)c2cnc3cc(F)c(-c4ccc(OCCCN5CCCCC5)nc4)cc3c21 + Cc1[nH]c2ccc(F)cc2c1-c1nc2c3cccnc3c3ncccc3c2[nH]1
IC50 (second compound 0.0316 µM): > 10000 nM
IC50 (second compound 0.1 µM): 10000 nM
IC50 (second compound 0.316 µM): 7080 nM
IC50 (second compound 1 µM): 31.6 nM
IC50 (second compound 3.16 µM): 3590 nM
IC50 (second compound 10 µM): 6960 nM
viability, T/C [1]: 73.1%
viability, T/C [2]: 74.1%
viability, T/C [3]: 88.2%
viability, T/C [4]: 30%
viability, T/C [5]: 99.5%
viability, T/C [6]: 52.4%
viability, T/C [7]: 74.4%
viability, T/C [8]: 91%
viability, T/C [9]: 70.8%
viability, T/C [10]: 37.9%
viability, T/C [11]: 69.7%
viability, T/C [12]: 48.6%
viability, T/C [13]: 80.9%
viability, T/C [14]: 96.9%
viability, T/C [15]: 60.6%
viability, T/C [16]: 58.2%
viability, T/C [17]: 87.7%
viability, T/C [18]: 38.5%
viability, T/C [19]: 57.2%
viability, T/C [20]: 43.3%
viability, T/C [21]: 60.9%
viability, T/C [22]: 54.3%
viability, T/C [23]: 98.5%
viability, T/C [24]: 46.8%
viability, T/C [25]: 57.1%
viability, T/C [26]: 54.3%
viability, T/C [27]: 59.3%
viability, T/C [28]: 70.8%
viability, T/C [29]: 47%
viability, T/C [30]: 29.8%
viability, T/C [31]: 71.9%
viability, T/C [32]: 50.6%
viability, T/C [33]: 85.5%
viability, T/C [34]: 89.3%
viability, T/C [35]: 70%
viability, T/C [36]: 40%

C#Cc1c(F)ccc2cc(O)cc(-c3ncc4c(N5CC6CCC(C5)N6)nc(OCC56CCCN5CC(F)C6)nc4c3F)c12 (stereo not given) + Cc1cnc(CNC(=O)c2c(=O)c3ccc(N4CCCN(C)CC4)nc3n3c2sc2ccccc23)cn1
IC50 (second compound 0.0316 µM): < 31.6 nM
IC50 (second compound 0.1 µM): < 31.6 nM
IC50 (second compound 0.316 µM): < 31.6 nM
IC50 (second compound 1 µM): < 31.6 nM
IC50 (second compound 3.16 µM): < 31.6 nM
IC50 (second compound 10 µM): < 31.6 nM
viability, T/C [1]: 48.3%
viability, T/C [2]: 45.1%
viability, T/C [3]: 46%
viability, T/C [4]: 30.9%
viability, T/C [5]: 38%
viability, T/C [6]: 28.6%
viability, T/C [7]: 31.6%
viability, T/C [8]: 26.9%
viability, T/C [9]: 25.8%
viability, T/C [10]: 21.6%
viability, T/C [11]: 22.5%
viability, T/C [12]: 20%
viability, T/C [13]: 22.2%
viability, T/C [14]: 22.6%
viability, T/C [15]: 25%
viability, T/C [16]: 18.9%
viability, T/C [17]: 19.8%
viability, T/C [18]: 16%
viability, T/C [19]: 18.4%
viability, T/C [20]: 19%
viability, T/C [21]: 21%
viability, T/C [22]: 18.1%
viability, T/C [23]: 15.7%
viability, T/C [24]: 13.3%
viability, T/C [25]: 17.1%
viability, T/C [26]: 20.5%
viability, T/C [27]: 19.5%
viability, T/C [28]: 17.4%
viability, T/C [29]: 17%
viability, T/C [30]: 16.5%
viability, T/C [31]: 19.3%
viability, T/C [32]: 16.1%
viability, T/C [33]: 20.3%
viability, T/C [34]: 17.5%
viability, T/C [35]: 19.7%
viability, T/C [36]: 16.2%

CC(C)(O)C1CCC(Nc2ccc3ncc(-c4cccc(C(F)(F)F)c4)n3n2)CC1 (stereo not given) + Cc1cnc(CNC(=O)c2c(=O)c3ccc(N4CCCN(C)CC4)nc3n3c2sc2ccccc23)cn1
IC50 (second compound 0.0316 µM): 358 nM
IC50 (second compound 0.1 µM): < 31.6 nM
IC50 (second compound 0.316 µM): < 31.6 nM
IC50 (second compound 1 µM): < 31.6 nM
IC50 (second compound 3.16 µM): < 31.6 nM
IC50 (second compound 10 µM): < 31.6 nM
viability, T/C [1]: 52.8%
viability, T/C [2]: 51.1%
viability, T/C [3]: 51.6%
viability, T/C [4]: 37.6%
viability, T/C [5]: 22%
viability, T/C [6]: 21.3%
viability, T/C [7]: 28.9%
viability, T/C [8]: 32.1%
viability, T/C [9]: 32.7%
viability, T/C [10]: 29.3%
viability, T/C [11]: 16.6%
viability, T/C [12]: 18.6%
viability, T/C [13]: 25.3%
viability, T/C [14]: 28.4%
viability, T/C [15]: 27.2%
viability, T/C [16]: 24.4%
viability, T/C [17]: 18.2%
viability, T/C [18]: 16%
viability, T/C [19]: 17.9%
viability, T/C [20]: 27.1%
viability, T/C [21]: 25.6%
viability, T/C [22]: 22.4%
viability, T/C [23]: 18.7%
viability, T/C [24]: 13.9%
viability, T/C [25]: 19.7%
viability, T/C [26]: 22.3%
viability, T/C [27]: 25.1%
viability, T/C [28]: 23.3%
viability, T/C [29]: 12.7%
viability, T/C [30]: 7.93%
viability, T/C [31]: 19.2%
viability, T/C [32]: 24.1%
viability, T/C [33]: 24.4%
viability, T/C [34]: 21.3%
viability, T/C [35]: 0.12%
viability, T/C [36]: 0.11%
